Laboratory results reported in ChEMBL document CHEMBL3400086, “Thieno[2,3-b]pyridines as negative allosteric modulators of metabotropic GluR5 receptors: Lead optimization” (Bioorg Med Chem Lett, 2015).

How the values were obtained:
Liver microsome [1] = assay: Intrinsic clearance in Wistar rat liver microsomes measured per gram of tissue at 2.5 uM; type: ADME
Liver microsome [2] = assay: Intrinsic clearance in human liver microsomes measured per gram of tissue at 2.5 uM; type: ADME
Rattus norvegicus [3] = assay: Anxiolytic effect in ip dosed Wistar male rat assessed as increase in number of accepted shocks by vogel punished drinking test; type: functional
[4] = biological target: Metabotropic glutamate receptor 5 (Rattus norvegicus) (UniProt P31424); assay: Displacement of [3H]-M-MPEP from rat cerebrocortical mGluR5 receptor at 1 uM
[5] = biological target: T1, Metabotropic glutamate receptor 5 (Rattus norvegicus, UniProt P31424); assay: Displacement of [3H]-M-MPEP from rat cerebrocortical mGluR5 receptor
[6] = biological target: T1, Metabotropic glutamate receptor 5; assay: Negative allosteric modulation of mGlu5 receptor in primary E17 rat embryo neuron assessed as ca2+ level by fluo-4/AM assay
Rattus norvegicus [7] = assay: Anxiolytic effect in po dosed Wistar male rat assessed as increase in number of accepted shocks by vogel punished drinking test; type: functional; settings: read-out: MED

Chain of Metabotropic glutamate receptor 5 (Rattus norvegicus) (P31424 21-1203 limits assumed): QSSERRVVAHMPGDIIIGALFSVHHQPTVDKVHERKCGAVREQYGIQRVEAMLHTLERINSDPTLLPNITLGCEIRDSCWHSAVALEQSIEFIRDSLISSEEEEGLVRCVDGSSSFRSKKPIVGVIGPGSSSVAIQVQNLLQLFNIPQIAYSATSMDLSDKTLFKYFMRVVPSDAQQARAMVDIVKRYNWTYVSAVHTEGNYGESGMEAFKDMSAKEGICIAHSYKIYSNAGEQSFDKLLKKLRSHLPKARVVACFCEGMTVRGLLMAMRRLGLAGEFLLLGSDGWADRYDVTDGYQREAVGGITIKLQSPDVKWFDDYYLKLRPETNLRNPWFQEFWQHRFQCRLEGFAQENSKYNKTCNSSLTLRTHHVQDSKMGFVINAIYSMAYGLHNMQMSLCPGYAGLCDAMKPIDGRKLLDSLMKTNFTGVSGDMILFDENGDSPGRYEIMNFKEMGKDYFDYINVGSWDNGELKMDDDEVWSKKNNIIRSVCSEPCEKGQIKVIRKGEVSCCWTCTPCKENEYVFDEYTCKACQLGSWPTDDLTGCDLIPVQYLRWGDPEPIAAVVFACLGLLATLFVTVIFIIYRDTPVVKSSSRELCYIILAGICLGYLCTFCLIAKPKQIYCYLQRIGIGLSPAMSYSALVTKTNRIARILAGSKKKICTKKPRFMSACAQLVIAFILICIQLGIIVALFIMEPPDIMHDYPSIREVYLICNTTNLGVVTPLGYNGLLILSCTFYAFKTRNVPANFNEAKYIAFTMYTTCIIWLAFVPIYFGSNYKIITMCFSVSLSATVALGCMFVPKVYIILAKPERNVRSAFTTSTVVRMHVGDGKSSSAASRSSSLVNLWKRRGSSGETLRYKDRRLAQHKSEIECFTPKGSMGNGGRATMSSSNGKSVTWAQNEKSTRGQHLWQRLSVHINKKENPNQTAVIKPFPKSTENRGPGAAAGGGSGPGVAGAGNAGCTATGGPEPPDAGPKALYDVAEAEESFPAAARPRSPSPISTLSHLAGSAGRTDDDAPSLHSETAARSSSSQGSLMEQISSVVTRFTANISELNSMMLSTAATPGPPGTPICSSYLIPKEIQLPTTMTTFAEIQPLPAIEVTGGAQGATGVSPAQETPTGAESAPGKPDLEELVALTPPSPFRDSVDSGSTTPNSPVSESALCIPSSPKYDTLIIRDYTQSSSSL
T1 sequence (P31424 whole entry): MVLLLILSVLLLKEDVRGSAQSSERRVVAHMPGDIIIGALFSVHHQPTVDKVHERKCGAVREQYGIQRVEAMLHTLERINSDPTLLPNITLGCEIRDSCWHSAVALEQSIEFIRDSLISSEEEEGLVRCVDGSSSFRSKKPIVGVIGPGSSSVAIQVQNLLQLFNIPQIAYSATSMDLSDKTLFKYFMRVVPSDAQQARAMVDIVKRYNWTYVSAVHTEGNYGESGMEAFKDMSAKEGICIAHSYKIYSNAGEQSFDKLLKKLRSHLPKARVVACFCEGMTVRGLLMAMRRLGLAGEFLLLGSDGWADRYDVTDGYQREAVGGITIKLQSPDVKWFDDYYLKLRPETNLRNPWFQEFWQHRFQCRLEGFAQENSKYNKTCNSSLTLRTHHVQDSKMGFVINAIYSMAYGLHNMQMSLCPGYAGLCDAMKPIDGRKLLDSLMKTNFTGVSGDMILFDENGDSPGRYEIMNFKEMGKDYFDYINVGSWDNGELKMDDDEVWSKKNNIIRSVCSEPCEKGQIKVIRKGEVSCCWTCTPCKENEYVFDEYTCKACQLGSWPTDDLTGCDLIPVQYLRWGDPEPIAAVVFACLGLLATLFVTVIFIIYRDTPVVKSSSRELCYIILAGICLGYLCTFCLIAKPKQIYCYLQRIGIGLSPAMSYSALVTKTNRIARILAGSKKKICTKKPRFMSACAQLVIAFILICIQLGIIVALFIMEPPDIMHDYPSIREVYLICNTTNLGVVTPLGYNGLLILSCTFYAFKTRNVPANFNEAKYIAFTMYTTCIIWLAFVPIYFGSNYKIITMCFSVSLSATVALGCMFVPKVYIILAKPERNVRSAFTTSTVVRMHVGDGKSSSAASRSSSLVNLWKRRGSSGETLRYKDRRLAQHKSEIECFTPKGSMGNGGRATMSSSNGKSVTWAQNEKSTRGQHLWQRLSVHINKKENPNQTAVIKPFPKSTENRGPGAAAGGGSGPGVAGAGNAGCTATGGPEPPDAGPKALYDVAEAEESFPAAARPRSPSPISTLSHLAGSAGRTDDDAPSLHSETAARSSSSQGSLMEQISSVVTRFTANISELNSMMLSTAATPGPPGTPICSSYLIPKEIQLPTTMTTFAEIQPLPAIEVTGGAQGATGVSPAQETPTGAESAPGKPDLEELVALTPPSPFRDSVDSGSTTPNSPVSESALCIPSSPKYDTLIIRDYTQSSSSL

## O=S(=O)(c1ccc(Cl)cc1)c1sc2ncccc2c1-c1ccc(Cl)cc1
Liver microsome [1]
  CLH: 4.2 mL/min/g
Liver microsome [2]
  CLH: 1.6 mL/min/g
Rattus norvegicus [3]
  Activity: Dose-dependent effect
Rattus norvegicus [3]; read-out: MED
  minimal effective dose: 40 mg/kg

## N#Cc1ccc(-c2c(S(=O)(=O)c3cccc(C#N)c3)sc3ncccc23)cc1
Liver microsome [1]
  CLH: 2.9 mL/min/g
Liver microsome [2]
  CLH: 0.1 mL/min/g
[4]
  inhibition: 62%

## O=S(=O)(Cc1ccccc1)c1sc2ncccc2c1-c1ccc(Cl)cc1
[4]
  inhibition: 25%

## O=S(=O)(c1ccccc1Cl)c1sc2ncccc2c1-c1ccc(Cl)cc1
[4]
  inhibition: 32%

## COc1ccnc2sc(S(=O)(=O)c3ccc(Cl)cc3)c(-c3ccc(Cl)cc3)c12
Liver microsome [1]
  CLH: 6.5 mL/min/g
Liver microsome [2]
  CLH: 1 mL/min/g
[4]
  inhibition: 20%

## O=S(=O)(Nc1ccc(Cl)cc1)c1sc2ncccc2c1-c1ccc(Cl)cc1
[4]
  inhibition: 20%

## O=S(=O)(NCc1ccc(Cl)cc1)c1sc2ncccc2c1-c1ccc(Cl)cc1
[4]
  inhibition: 30%

## O=S(=O)(c1cccs1)c1sc2ncccc2c1-c1ccc(Cl)cc1
[4]
  inhibition: 34%

## N#Cc1cc(F)cc(S(=O)(=O)c2sc3ncccc3c2-c2ccccc2F)c1
Liver microsome [1]
  CLH: 3.5 mL/min/g
[5]
  Ki: 1.1 nM
Liver microsome [2]
  CLH: 2.4 mL/min/g
[6]
  IC50: 1.5 nM

## O=S(=O)(c1ccc(Cl)cc1)c1sc2nc(Cl)ccc2c1-c1ccc(Cl)cc1
Liver microsome [1]
  CLH: 3.4 mL/min/g
[5]
  Ki: 93 nM
Liver microsome [2]
  CLH: 0.01 mL/min/g
[6]
  IC50: 1030 nM

## N#Cc1cc(F)cc(S(=O)(=O)c2sc3ncc(N)cc3c2-c2ccc(F)c(F)c2)c1
Liver microsome [1]
  CLH: 1 mL/min/g
[5]
  Ki: 2.7 nM
Liver microsome [2]
  CLH: 0.9 mL/min/g
[6]
  IC50: 9 nM

## COc1ccc2c(-c3ccc(Cl)cc3)c(S(=O)(=O)c3cccc(C#N)c3)sc2n1
Liver microsome [1]
  CLH: 4.2 mL/min/g
Liver microsome [2]
  CLH: 0.3 mL/min/g
[4]
  inhibition: 50%

## N#Cc1cc(F)cc(S(=O)(=O)c2sc3ncc(N)cc3c2-c2cnccc2F)c1
Liver microsome [1]
  CLH: 0.7 mL/min/g
[5]
  Ki: 15.2 nM
Liver microsome [2]
  CLH: 0.6 mL/min/g
[6]
  IC50: 18 nM

## N#Cc1cc(F)cc(S(=O)(=O)c2sc3ncccc3c2-c2cccc(Cl)c2)c1
Liver microsome [1]
  CLH: 2 mL/min/g
[5]
  Ki: 8.9 nM
Liver microsome [2]
  CLH: 2.6 mL/min/g
[6]
  IC50: 11 nM

## N#Cc1cc(F)cc(S(=O)(=O)c2sc3ncccc3c2-c2cnccc2F)c1
Liver microsome [1]
  CLH: 1 mL/min/g
[5]
  Ki: 13.6 nM
Liver microsome [2]
  CLH: 0.9 mL/min/g
[6]
  IC50: 22 nM

## N#Cc1cccc(-c2c(S(=O)(=O)c3cccc(C#N)c3)sc3ncccc23)c1
Liver microsome [1]
  CLH: 3.9 mL/min/g
[5]
  Ki: 85 nM
Liver microsome [2]
  CLH: 1.1 mL/min/g
[6]
  IC50: 105 nM

## O=S(=O)(c1ccc(Cl)cc1)c1sc2nccc(O)c2c1-c1ccc(Cl)cc1
Liver microsome [1]
  CLH: 0.7 mL/min/g
Liver microsome [2]
  CLH: 0.01 mL/min/g
[4]
  inhibition: 34%

## CC(=O)Nc1ccc(S(=O)(=O)c2sc3ncccc3c2-c2ccc(Cl)cc2)cc1
[4]
  inhibition: 6%

## Cc1noc(C)c1S(=O)(=O)c1sc2ncccc2c1-c1ccc(Cl)cc1
[4]
  inhibition: 0%

## CS(=O)(=O)c1ccc(-c2c(S(=O)(=O)c3ccc(Cl)cc3)sc3ncccc23)cc1
Liver microsome [1]
  CLH: 2.4 mL/min/g
Liver microsome [2]
  CLH: 0.4 mL/min/g
[4]
  inhibition: 13%

## O=S(=O)(c1ccc(Cl)cc1)c1sc2ncccc2c1-c1ccccc1Cl
Liver microsome [1]
  CLH: 3.7 mL/min/g
[5]
  Ki: 64 nM
Liver microsome [2]
  CLH: 2.8 mL/min/g
[6]
  IC50: 172 nM

## CC1CCN(S(=O)(=O)c2sc3ncccc3c2-c2ccc(Cl)cc2)CC1
[4]
  inhibition: 39%

## Cc1nc(C)c(S(=O)(=O)c2sc3ncccc3c2-c2ccc(Cl)cc2)s1
[4]
  inhibition: 35%

## O=S(=O)(c1ccc(Cl)cc1)c1sc2ncccc2c1Oc1ccc(Cl)cc1
Liver microsome [1]
  CLH: 9.3 mL/min/g
Liver microsome [2]
  CLH: 3 mL/min/g
[4]
  inhibition: 11%

## CN(C)c1ccc2c(-c3ccc(Cl)cc3)c(S(=O)(=O)c3ccc(Cl)cc3)sc2n1
Liver microsome [1]
  CLH: 3.7 mL/min/g
Liver microsome [2]
  CLH: 1.4 mL/min/g
[4]
  inhibition: 2%

## O=S(=O)(c1sc2ncccc2c1-c1ccc(Cl)cc1)C1CCCCC1
[4]
  inhibition: 14%

## CCCCS(=O)(=O)c1sc2ncccc2c1-c1ccc(Cl)cc1
[4]
  inhibition: 30%

## Cc1cc(C)c(S(=O)(=O)c2sc3ncccc3c2-c2ccc(Cl)cc2)c(C)c1
[4]
  inhibition: 0%

## N#Cc1cccc(S(=O)(=O)c2sc3nc(F)ccc3c2-c2ccc(Cl)cc2)c1
Liver microsome [1]
  CLH: 1.4 mL/min/g
[5]
  Ki: 8.3 nM
Liver microsome [2]
  CLH: 1 mL/min/g
[6]
  IC50: 48 nM

## N#Cc1cccc(S(=O)(=O)c2sc3nc(Cl)ccc3c2-c2ccc(Cl)cc2)c1
Liver microsome [1]
  CLH: 3.6 mL/min/g
Liver microsome [2]
  CLH: 1.4 mL/min/g
[4]
  inhibition: 19%

## O=S(=O)(c1ccc(Cl)cc1)c1sc2ncccc2c1-c1cccc(F)c1
Liver microsome [1]
  CLH: 4.1 mL/min/g
[5]
  Ki: 38 nM
Liver microsome [2]
  CLH: 2.3 mL/min/g
[6]
  IC50: 123 nM

## N#Cc1cc(F)cc(S(=O)(=O)c2sc3ncc(N)cc3c2-c2cccc(F)c2)c1
Rattus norvegicus [7]
  minimal effective dose: 3 mg/kg
Liver microsome [1]
  CLH: 1.2 mL/min/g
Liver microsome [2]
  CLH: 0.9 mL/min/g
[6]
  IC50: 5.5 nM

## O=S(=O)(c1ccc(Cl)cc1)c1sc2ncc(Cl)cc2c1-c1ccc(Cl)cc1
Liver microsome [1]
  CLH: 2.8 mL/min/g
[5]
  Ki: 69 nM
Liver microsome [2]
  CLH: 0.01 mL/min/g
[6]
  IC50: 363 nM

## N#Cc1cc(F)cc(S(=O)(=O)c2sc3ncccc3c2-c2cnccc2Cl)c1
Liver microsome [1]
  CLH: 1 mL/min/g
[5]
  Ki: 9.3 nM
Liver microsome [2]
  CLH: 1.1 mL/min/g
[6]
  IC50: 34 nM

## N#Cc1cc(F)cc(S(=O)(=O)c2sc3ncccc3c2-c2ccc(F)cc2)c1
Liver microsome [1]
  CLH: 2.1 mL/min/g
[5]
  Ki: 2.4 nM
Liver microsome [2]
  CLH: 2.1 mL/min/g
[6]
  IC50: 10.6 nM
